Laboratory results reported in the NIST ThermoML archive (doi:10.1016/j.fluid.2008.07.004).
Numbers after ± are expanded uncertainties.

Settings: Liquid

| vapor or sublimation pressure (352.65 K) | vapor or sublimation pressure (330.05 K) | SMILES |
| --- | --- | --- |
| 101.3 ± 4 kPa | – | CCC(=O)OC [methyl propanoate] |
| – | 101.3 ± 3.6 kPa | COC(C)=O [methyl ethanoate] |
